From patent US12312330B2, “1-((S)-1-(3-chloro-5-fluoro-2-((4-(1h-pyrazol-1-yl)-2-methylquinolin-8-yloxy)methyl)phenyl)ethyl)-imidazolidine-2,4-dione derivatives and related compounds as bradykinin (BK) B2 receptor antagonist for treating skin diseases” (Pharvaris GmbH, priority 2019, dated 2025)

Biological target: T1, human bradykinin B2 receptor (hB2R) (Homo sapiens, UniProt P30411)
T1 sequence (P30411 1-391): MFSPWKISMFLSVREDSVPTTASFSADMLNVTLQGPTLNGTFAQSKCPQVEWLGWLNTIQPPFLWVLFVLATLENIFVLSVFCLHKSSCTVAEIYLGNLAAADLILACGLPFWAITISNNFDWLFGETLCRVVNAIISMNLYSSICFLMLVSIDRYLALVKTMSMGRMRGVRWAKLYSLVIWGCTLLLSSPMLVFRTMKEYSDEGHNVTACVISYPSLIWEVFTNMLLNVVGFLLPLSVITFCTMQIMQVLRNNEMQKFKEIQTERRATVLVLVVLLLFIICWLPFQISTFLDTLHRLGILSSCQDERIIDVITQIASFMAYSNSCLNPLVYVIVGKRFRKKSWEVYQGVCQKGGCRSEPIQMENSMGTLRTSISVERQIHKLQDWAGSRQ
Assay: human bradykinin B2 receptor calcium mobilization (hB2R-CaM) assay
Format: cell-based
Conditions: antagonism of bradykinin (EC80) induced calcium mobilization, B2 Bradykinin Receptor Stable Cell Line HTS041C, 25 min pre-incubation; read-out: IC50-value towards human bradykinin B2 receptor (hB2R)
Excerpt: The following cell-based human bradykinin B2 receptor calcium mobilization (hB2R-CaM) assay was used to determine the antagonistic activity of compounds selected from the example compounds Nos. 1 to 107 towards human bradykinin B2 receptor (hB2R). The assay is defined herein as a standard in vitro B2 receptor activity assay, which can be used to determine IC50 values of the compounds according to the present invention, e. g. the compounds shown in Examples 1-13.
The antagonistic activity of compounds according to the present invention was investigated with the hB2R-CaM assay using the B2 Bradykinin Receptor Stable Cell Line HTS041C (Eurofins, St. Charles MO) and the FLIPR Calcium 6 Assay Kit (Molecular Devices, Wokingham, UK) according to the instructions of the providers. CaM assay measurements were performed with a Flexstation 3 System (Molecular Devices) which allows the precise addition of compounds (B2R antagonists) and bradykinin (B2R agonist) to the cells and adjacent continuous recording of the time-dependent CaM assay signals.
HTS041C cells were cultured in high glucose DMEM cell culture medium (Lonza) supplemented with 10% heat-inactivated FBS (PAN Biotech), 10 mM HEPES, Penicillin/Streptomycin (200 U/mL, 200 μg/mL), lx non-essential amino acids (Lonza), and 250 μg/mL G418 (Invivogen) in cell incubator at 37° C. in a 5% CO2 atmosphere. One day before the CaM assay experiments cells were seeded in 200 μL DMEM cell culture medium with reduced FBS (5%) and without G418 on clear bottom black 96 well plates (ThermoFisher #165305). Cell starvation was carried out by incubation (37° C., 5% CO2) of 70.000 cells/well for 24 h to 28 h. Immediately prior calcium dye-loading the medium was carefully aspirated and cells were washed with Hank's balanced salt solution (HBSS, Gibco) containing Ca^2+, Mg^2+ and 20 mM HEPES, adjusted to pH 7.4 (HBSS+).
For calcium dye-loading one FLIPR 6 assay aliquot was dissolved in 20 mL HBSS+. 150 μL of the dye loading solution was added to cell plate and incubated for 120 min at 37° C. and 5% CO2. After dye loading the cell plate was immediately transferred to the pre-warmed (37° C.) Flexstation 3 System for CaM assaying.
Freshly prepared compound (B2 receptor antagonists) dilution series (8 pt, n=2) and bradykinin (B2 receptor agonist) solution in non-binding plates (Costar) were transferred to the Flexstation System (source plate) shortly before starting the experiment. Bradykinin was added in EC80 concentration determined in n>3 preliminary experiments with 8 pt concentration response curves (n=8)). CaM assay was executed by Flexstation 3 System starting with recording of calcium-sensitive dye fluorescence in bottom-read Flex modus with ex/em=485 nm/525 nm, cut off(em)=515 nm After 20 s, 50 μL of 4-fold concentrated compound dilutions were added to the cells resulting in a final DMSO (Sigma) concentration of 0.1% in the cell plate. CaM signals were monitored for 80 s after additions for detection of potential agonistic activities. Prior to bradykinin stimulus compound- and vehicle-treated cells were incubated for 25 min at 37° C. within the Flexstation System. Then 50 μL of a 5-fold concentrated bradykinin solution (HBSS+, 0.1% DMSO) was added to trigger CaM signals (Read out: Max-Min values) which were measured for 80 s post bradykinin stimulus.
IC50 determinations were performed by 4 parameter logistic model curve fitting of the 8 pt (n=2) compound concentration response curves using XLFIT (IDBS) software.

IC50, 101 to 500 nM:
Cc1cc(-c2ncnn2C)c2cccc(OCc3c(Cl)cc(F)cc3[C@H](C)N3CCC[C@H](O)C3=O)c2n1 [compound 85]

IC50, 11 to 100 nM:
Cc1cc(-c2ncnn2C)c2cccc(OCc3c(Cl)cc(F)cc3[C@H](C)N3C[C@H](O)CCC3=O)c2n1 [compound 83], Cc1cc(-n2cc(F)cn2)c2cccc(OCc3c(Cl)cc(F)cc3[C@H](C)N3CCC[C@@H](O)C3=O)c2n1 [compound 84], Cc1cc(-n2cc(F)cn2)c2cccc(OCc3c(Cl)cc(F)cc3[C@H](C)N3CC[C@@H](OC(F)F)C3=O)c2n1 [compound 89], Cc1cc(-n2cc(F)cn2)c2cccc(OCc3c(Cl)cc(F)cc3[C@H](C)N3C(=O)[C@H](C)NC(=O)[C@@H]3C)c2n1 [compound 90], Cc1cc(-n2cc(F)cn2)c2cccc(OCc3c(Cl)cc(F)cc3[C@H](C)N3C[C@H](O)CC3=O)c2n1 [compound 95], Cc1cc(-c2ncnn2C)c2cccc(OCc3c(Cl)cc(F)cc3[C@H](C)N3C[C@H](O)CC3=O)c2n1 [compound 96], Cc1cc(-n2cc(F)cn2)c2cccc(OCc3c(Cl)cc(F)cc3[C@H](C)N3C(=O)[C@@H](C)NC(=O)[C@@H]3C)c2n1 [compound 99], Cc1cc(-n2cc(F)cn2)c2cccc(OCc3c(Cl)cc(F)cc3[C@H](C)N3CCNC(C)(C)C3=O)c2n1 [compound 100], Cc1cc(-c2ncnn2C)c2cccc(OCc3c(Cl)cc(F)cc3[C@H](C)N3CC(=O)NC(C)(C)C3=O)c2n1 [compound 101], Cc1cc(-n2cc(F)cn2)c2cccc(OCc3c(Cl)cc(F)cc3[C@H](C)N3CC(=O)NC(C)(C)C3=O)c2n1 [compound 102], Cc1cc(-n2cc(F)cn2)c2cccc(OCc3c(Cl)cc(F)cc3[C@H](C)N3CC(=O)N(C)[C@H](C)C3=O)c2n1 [compound 103], Cc1cc(-c2ncnn2C)c2cccc(OCc3c(Cl)cc(F)cc3[C@H](C)N3C(=O)[C@@H](C)NC(=O)[C@H]3C)c2n1 [compound 105], Cc1cc(-c2ncnn2C)c2cccc(OCc3c(Cl)cc(F)cc3[C@H](C)N3C(=O)[C@H](C)NC(=O)[C@H]3C)c2n1 [compound 106], CCN1C(=O)CN([C@@H](C)c2cc(F)cc(Cl)c2COc2cccc3c(-n4cc(F)cn4)cc(C)nc23)C1=O [compound 107]

IC50, ≤ 10 nM:
CCN1CCN([C@@H](C)c2cc(F)cc(Cl)c2COc2cccc3c(-n4cc(F)cn4)cc(C)nc23)C(=O)C1 [compound 81], Cc1cc(-n2cc(F)cn2)c2cccc(OCc3c(Cl)cc(F)cc3[C@H](C)N3C[C@H](O)CCC3=O)c2n1 [compound 82], Cc1cc(-n2cc(F)cn2)c2cccc(OCc3c(Cl)cc(F)cc3[C@H](C)N3C[C@H](C)NC(=O)C3=O)c2n1 [compound 86], Cc1cc(-n2cc(F)cn2)c2cccc(OCc3c(Cl)cc(F)cc3[C@H](C)N3CCN(C)C(=O)C3=O)c2n1 [compound 87], Cc1cc(-c2ncnn2C)c2cccc(OCc3c(Cl)cc(F)cc3[C@H](C)N3CC[C@@H](OC(F)F)C3=O)c2n1 [compound 88], Cc1cc(-c2ncnn2C)c2cccc(OCc3c(Cl)cc(F)cc3[C@H](C)N3CC[C@H](F)C3=O)c2n1 [compound 91], Cc1cc(-n2cc(F)cn2)c2cccc(OCc3c(Cl)cc(F)cc3[C@H](C)N3CCN(C)[C@@H](C)C3=O)c2n1 [compound 92], Cc1cc(-n2cc(F)cn2)c2cccc(OCc3c(Cl)cc(F)cc3[C@H](C)N3CCN(C)[C@H](C)C3=O)c2n1 [compound 93], Cc1cc(-n2cc(F)cn2)c2cccc(OCc3c(Cl)cc(F)cc3[C@H](C)N3CCN[C@@H](C)C3=O)c2n1 [compound 94], Cc1cc(-n2cc(F)cn2)c2cccc(OCc3c(Cl)cc(F)cc3[C@H](C)N3C[C@@H](C)NC(=O)C3=O)c2n1 [compound 97], Cc1cc(-c2ncnn2C)c2cccc(OCc3c(Cl)cc(F)cc3[C@H](C)N3C[C@@H](C)NC(=O)C3=O)c2n1 [compound 98], Cc1cc(-c2ncnn2C)c2cccc(OCc3c(Cl)cc(F)cc3[C@H](C)N3CC(=O)N(C)[C@H](C)C3=O)c2n1 [compound 104]
